Data: PMC11404609, “Gut microbiota-mediated C-sulfonate metabolism impairs the bioavailability and anti-cholestatic efficacy of andrographolide” (Gut Microbes, 2024)
Counter-ions that a name gives are not always drawn. Like-named read-outs stand apart in the source and are kept apart here. One block for each molecule: values may come before it.

How the values were obtained:
[1] = parameters: method as in PMID 36809835, PMID 34142342; settings: dose-dependent increase; cited from earlier work
intestinal flora of mice = experiment: Co-culturing AP with cecum samples from mice; assay type: in vitro ADME; settings: bromocriptine mesylate 20 μg/mL
Protocol: (§1) The cecum contents from mice were collected and mixed with sterilized anaerobic medium in a ratio of 1.0 g to 10 mL, with gentle agitation. After filtered, the mixed medium containing the intestinal flora was placed in an anaerobic environment and preincubated at 37°C for 30 min before use. Mixed medium with or without APS reductase inhibitor bromocriptine mesylate (20 μg/mL) was incubated with AP (10 μg/mL), while autoclaved mixed medium without APS reductase inhibitor served as the control. Incubation was performed in a shaking incubator at 37°C for 6 h, with strict maintenance of anaerobic condition throughout the process.[44] Similarly, D. piger (0.2 mL, 1 × 10^8 CFU/mL) with or without inhibitor, was incubated with AP for 0, 3, 6, and 12 h, with autoclaved D. piger without inhibitor serving as the control. The reaction was terminated by adding cold methanol contained IS. And then samples were analyzed by UPLC-MS/MS to detect the concentrations of AP and APM. Concentrations of APS reductase and HSO3^− were also determined at the end of incubation.
(§2) For the determination of APS reductase concentration, the supernatant from mouse cecum contents and the D. piger strain were assessed using microorganism APS reductase elisa assay kit (Shanghai Senxingyan Biotechnology Co., Ltd., China), following the instructions provided with the kit. For the determination of HSO3^− concentration, cecum contents from mice or rats were weighed and homogenized in five volumes of normal saline (based on tissue weight). The homogenate was then subjected to centrifugation at 13,000 rpm and 4°C for 15 min. The supernatant (or perfusate) was collected and mixed with 0.2% formaldehyde, 0.05% basic fuchsin, and 0.01% EDTA-Na2 in a ratio of 1:1:1:9 under acidic conditions. To establish a standard curve, different concentrations of NaHSO3 were used. Subsequently, the absorbance of the resulting solutions was measured at a wavelength of 560 nm after 40 min.

HSO3^− = HSO3^− concentration in the cecum; assay type: in vivo; settings: mice
Protocol: Mice were orally administered APS reductase inhibitor bromocriptine mesylate (20 mg/kg, p.o.) or Na2SO4 (200 mg/kg, p.o.) or saline solution 1 week before AP treatment (a single dose of AP at 100 mg/kg, p.o.). After 360 min of AP treatment, all mice were euthanized, and tissue samples were collected for subsequent analysis. In specific cases, mice were orally administered D. piger suspension (0.2 mL, 1 × 10^9 CFU/mL) or saline solution 2 weeks before AP treatment (a single dose of AP at 100 mg/kg, p.o.).
as §2

D. piger = assay type: in vitro ADME, Desulfovibrio piger; settings: D. piger with inhibitor
Protocol: as §1, with “The reaction was terminated by adding cold methanol contained IS.” left out
For the determination of APS reductase concentration, the supernatant from mouse cecum contents and the D. piger strain were assessed using microorganism APS reductase elisa assay kit (Shanghai Senxingyan Biotechnology Co., Ltd., China), following the instructions provided with the kit. […] Subsequently, the absorbance of the resulting solutions was measured at a wavelength of 560 nm after 40 min.

APS reductase = APS reductase level in feces by qPCR; assay type: in vivo; settings: mice feces, bromocriptine mesylate 20 mg/kg p.o.
Protocol: Total RNA from frozen livers of Vehicle, AP (200 mg/kg, i.p.), ANIT (50 mg/kg), and ANIT+AP (200 mg/kg, i.p.) groups was extracted using the Animal Total RNA Isolation Kit (FOREGENE, China). cDNA was synthesized using a Color Reverse Transcription Kit (EZBioscience, Roseville, CA, USA). qPCR was performed using SYBR green/Rox qPCR master mix (EZBioscience, Roseville, CA, USA), according to the manufacturer’s instruction. The expression of target genes was normalized to β-actin, and fold changes were calculated using 2^–ΔΔCT method. For bacterial identification, genomic DNA of fecal flora was isolated using the TIANamp Stool DNA Kit (TIANGEN, Beijing, China) and qPCR was performed. The relative abundance and expression of Desulfovibrio spp., D. piger and APS reductase were normalized to the amounts of total bacteria (16S). All primers were synthesized by Tsingke Biotechnology Co., Ltd. (Beijing, China) and were listed in Supplementary Table S1.

[2] = Safety of APS reductase inhibitor (liver, renal, blood lipid indicators); assay type: in vivo; settings: mice, 20 mg/kg orally for 14 days
Protocol: Supplementary Figure 5. […] (A-D) Liver function indicators including ALT, AST, TBA, and TBIL. (E-G) Renal function indicators including CREA, UREA, and UA. (H-K) Blood lipid indicators including TG, TC, HDL-C, and LDL-C. Inhibitor refers to the treatment with the APS reductase inhibitor bromocriptine mesylate at a dosage of 20 mg/kg, administered orally for 14 days in mice. Data are presented as mean ± SEM (n = 8 per group).

[3] = AP incubation with duodenal perfusate; assay type: in vitro ADME, rat; settings: AP 40 μM
Protocol: To investigate whether HSO3^- is the essential ligand for the C-sulfonate metabolism of AP, duodenal perfusate of SD rat was collected according to the method described in the literature^5. The duodenal perfusate was filtered by 0.22 μm Millex® needle filter, ultrafiltered by Amicon® Ultra filter or placed in an autoclave at 121°C for 2 hours, and then incubated with AP (40 μM) in vitro for 30, 60, 90 and 120 min. In another experiment, duodenal perfusate was autoclaved and then combined with HSO3^- (80 μM) and incubated with AP (40 μM) in vitro for 120 min. At the end of the incubation, 100 μL of ice-cold acetonitrile was quickly added to terminate the reaction. After centrifugation at 13000 rpm for 30 min, the supernatant was collected for UPLC-MS/MS analysis.

[4] = Tissue distribution of AP and APM in rats; assay type: in vivo
Protocol: (§3) Control and ABX rats were orally administered a single dose of AP at 120 mg/kg. Control, ABX and germ-free C57BL/6J mice were orally administered a single dose of AP at 100 mg/kg. After 90 min of AP administration, all animals were euthanized, and blood and tissue samples were collected for subsequent analysis.
(§4) An ACQUITY^TM UPLC-MS/MS system equipped with an ACQUITY^TM UPLC BEH C18 Column (50 × 2.1 mm I.D., 1.7 μm, Waters, Milford, MA, USA) was utilized for the quantification of AP and APM as previously described.[47] Briefly, the detection samples (50 μL) were mixed with 50 μL of IS (50 ng/mL). AP and APM were extracted by 400 μL cold methanol. Supernatants were dried under nitrogen stream. Then, the residue was dissolved with 50% methanol in water, centrifuged for 30 min at 13,000 rpm, and 10 µL of the supernatant was subjected to UPLC-MS/MS analysis. The mobile phases consisted of eluent A (water) and eluent B (methanol) with a gradient elution as follows: 0–0.8 min, 10% B; 0.8–1.2 min, 10–90% B; 1.2–5.0 min, 90% B; 5.0–5.5 min, 90–10% B; 5.5–7.0 min, 10% B. The flow rate was 0.3 mL/min and the injection volume of all samples was 10 μL. The quantification of AP, APM and IS was performed by UPLC-MS/MS using an MRM method with the transitions of m/z 349.1→m/z 287.2 for AP, m/z 413.2→m/z 287.2 for APM, m/z 269→m/z 133 for IS.
(§5) AP was administered intravenously and orally to detect the production of the C-sulfonate metabolite APM. In tissue distribution experiment, rats were given AP intravenously (24 mg/kg) or orally (120 mg/kg), while mice received AP intravenously (20 mg/kg) or orally (100 mg/kg). After a 90-minute interval, the animals were sacrificed, and their liver, kidneys, small intestine, and colon were collected for analysis. In pharmacokinetic studies, rats were administered 24 mg/kg of AP intravenously or 120 mg/kg of AP by oral gavage. Blood samples were collected at predetermined time intervals (0, 5, 10, 20, 30, 40, 60, 90, 120, 180, 240, 360, and 480 min), as described, to detect the content of AP and APM by UPLC-MS/MS.

[5] = Tissue distribution of AP and APM in mice; assay type: in vivo
Protocol: as §3
After 360 min of AP treatment, all mice were euthanized, and tissue samples were collected for subsequent analysis. […]
as §4, §5

[6] = parameters: method as in PMID 21721007; settings: AP incubated with rat duodenal perfusate; cited from earlier work

Structure (SMILES): CC[C@H]1[C@@H](O)[C@@H]2[C@H](CC[C@]3(C)[C@@H]([C@H](C)CCC(=O)O)CC[C@@H]23)[C@@]2(C)CC[C@@H](O)C[C@@H]12 [OCA, obeticholic acid]
pruritus, share of treated patients [1]: roughly 40%

Structure (SMILES): CC(C)C[C@H]1C(=O)N2CCC[C@H]2[C@]2(O)O[C@](NC(=O)[C@@H]3C=C4c5cccc6[nH]c(Br)c(c56)C[C@H]4N(C)C3)(C(C)C)C(=O)N12 [bromocriptine mesylate]
effect on conversion of AP into APM by the intestinal flora (intestinal flora of mice; AP 10 μg/mL, 6 h): effectively impeded
concentrations of APS reductase and HSO3^− (intestinal flora of mice; co-culture of AP with cecum samples): significant decrease
HSO3^− content in the cecum (HSO3^−; bromocriptine mesylate 20 mg/kg p.o.): decrease
effect on D. piger metabolism of AP into APM (APS reductase and HSO3^− production) (D. piger): significantly inhibited
APS reductase level (APS reductase): decrease
damage to organism (liver function, renal function, blood lipid indicators) [2]: did not induce damage to organism

APM generation ([3]; autoclaved duodenal perfusate): not detectable
APM generation ([3]; autoclaved perfusate with addition of HSO3^− (80 μM), 120 min): production of APM
APM generation ([3]; duodenal perfusate after filtration and ultrafiltration): continued APM generation
levels of APM in plasma and tissues ([4]; ABX-treated rats vs Control, AP 120 mg/kg oral): reduced levels
APM in all tissues ([4]; rats, oral administration of AP (120 mg/kg)): significant amount of APM was detected
APM in the intestine, liver, and kidneys ([4]; rats, tail vein administration of AP (24 mg/kg)): undetectable
concentration of APM in tissues ([5]; ABX-treated mice vs Control, AP 100 mg/kg oral): decreased
concentration of APM in tissues ([5]; mice colonized with D. piger vs Control, AP 100 mg/kg p.o.): increase
level of APM in the intestine and liver ([5]; mice of pharmacological experiment, AP 200 mg/kg, following ABX treatment vs Control): decreased significantly
APM within the small intestine and liver ([5]; mice, AP 200 mg/kg p.o. with APS reductase inhibitor vs without): decrease
APM in all tissues ([5]; mice, oral administration of AP (100 mg/kg)): significant amount of APM was detected
APM in the intestine, liver, and kidneys ([5]; mice, tail vein administration of AP (20 mg/kg)): undetectable
Structure (SMILES): C=C1CCC2C(C)(CO)C(O)CCC2(C)C1CC(C1=CCOC1=O)S(=O)(=O)O [APM, 14-deoxy-12(R)-sulfo andrographolide]
APM generation [6]: large amounts

Structure (SMILES): O=S(=O)([O-])[O-].[Na+].[Na+] [Na2SO4, sodium sulfate]
HSO3^− content in the cecum (HSO3^−; Na2SO4 200 mg/kg p.o.): significant increase
